Experimental data from article PMC7686313, “Phase 1 study of mTORC1/2 inhibitor sapanisertib (TAK-228) in advanced solid tumours, with an expansion phase in renal, endometrial or bladder cancer” (British Journal of Cancer, 2020).

Experiment: Safety (adverse events, NCI CTCAE v4.0), expansion phase
Conditions: expansion QW 40 mg
Source text: Based on data collected during dose-escalation, the expansion phase evaluated the safety and efficacy of QD and QW sapanisertib in patients with RCC, endometrial or bladder cancer. Patients could continue receiving sapanisertib for ≤1 year (or beyond, if the investigator and sponsor agreed) in the absence of disease progression or unacceptable toxicity.
Patients who received ≥1 dose of sapanisertib were included in the safety population. The response-evaluable population included patients who received ≥1 dose of sapanisertib, had measurable disease at baseline, and had ≥1 postbaseline assessment. […] Adverse events (AEs) were assessed using the National Cancer Institute Common Terminology Criteria for Adverse Events, v4.0. Patients were provided with a home blood-glucose meter to monitor their fasting predose blood-glucose measurements to assess hyperglycaemia as an on-target AE and PD marker.

CC(C)n1nc(-c2ccc3oc(N)nc3c2)c2c(N)ncnc21 [Sapanisertib]
Abdominal pain, all-grade AE of any cause: 4 (15) n (%) | Abdominal pain, grade ≥3 AE of any cause: 0 (0) n (%) | Acute kidney injury, grade ≥3 AE of any cause: 2 (8) n (%) | Acute kidney injury, treatment-related AE: 4 (15) n (%) | Anaemia, all-grade AE of any cause: 11 (42) n (%) | Anaemia, grade ≥3 AE of any cause: 3 (12) n (%) | Anaemia, treatment-related AE: 8 (31) n (%) | Any AE: 26 (100) n (%) | Any AE resulting in dose modification/interruption: 20 (77) n (%) | Any AE resulting in treatment discontinuation: 2 (8) n (%) | Any SAE: 9 (35) n (%) | Any grade ≥3 AE: 19 (73) n (%) | Any treatment-related AE: 26 (100) n (%) | Any treatment-related SAE: 4 (15) n (%) | Any treatment-related grade ≥3 AE: 14 (54) n (%) | Arthralgia, all-grade AE of any cause: 7 (27) n (%) | Asthenia, grade ≥3 AE of any cause: 2 (8) n (%) | Asthenia, treatment-related AE: 4 (15) n (%) | Asthenia, treatment-related grade ≥3 AE: 1 (4) n (%) | Blood creatinine increased, all-grade AE of any cause: 5 (19) n (%) | Blood creatinine increased, treatment-related AE: 4 (15) n (%) | Constipation, all-grade AE of any cause: 10 (38) n (%) | Constipation, grade ≥3 AE of any cause: 1 (4) n (%) | Cough, all-grade AE of any cause: 8 (31) n (%) | Decreased appetite, all-grade AE of any cause: 14 (54) n (%) | Decreased appetite, treatment-related AE: 14 (54) n (%) | Dehydration, all-grade AE of any cause: 7 (27) n (%) | Dehydration, grade ≥3 AE of any cause: 3 (12) n (%) | Dehydration, treatment-related AE: 5 (19) n (%) | Dehydration, treatment-related grade ≥3 AE: 2 (8) n (%) | Depression, all-grade AE of any cause: 3 (12) n (%) | Diarrhoea, all-grade AE of any cause: 13 (50) n (%) | Diarrhoea, grade ≥3 AE of any cause: 1 (4) n (%) | Diarrhoea, treatment-related AE: 13 (50) n (%) | Diarrhoea, treatment-related grade ≥3 AE: 1 (4) n (%) | Dizziness, all-grade AE of any cause: 3 (12) n (%) | Dry mouth, all-grade AE of any cause: 7 (27) n (%) | Dry mouth, treatment-related AE: 6 (23) n (%) | Dysgeusia, all-grade AE of any cause: 3 (12) n (%) | Dysgeusia, treatment-related AE: 3 (12) n (%) | Dyspepsia, treatment-related AE: 2 (8) n (%) | Dyspnoea, grade ≥3 AE of any cause: 0 (0) n (%) | Fatigue, all-grade AE of any cause: 24 (92) n (%) | Fatigue, grade ≥3 AE of any cause: 4 (15) n (%) | Fatigue, treatment-related AE: 23 (88) n (%) | Fatigue, treatment-related grade ≥3 AE: 4 (15) n (%) | Haematuria, grade ≥3 AE of any cause: 0 (0) n (%) | Headache, all-grade AE of any cause: 6 (23) n (%) | Headache, treatment-related AE: 4 (15) n (%) | Hypercholesterolemia, treatment-related AE: 0 (0) n (%) | Hyperglycaemia, all-grade AE of any cause: 20 (77) n (%) | Hyperglycaemia, grade ≥3 AE of any cause: 6 (23) n (%) | Hyperglycaemia, treatment-related AE: 20 (77) n (%) | Hyperglycaemia, treatment-related grade ≥3 AE: 6 (23) n (%) | Hyperkalaemia, grade ≥3 AE of any cause: 0 (0) n (%) | Hypertension, grade ≥3 AE of any cause: 1 (4) n (%) | Hypokalaemia, grade ≥3 AE of any cause: 0 (0) n (%) | Hyponatremia, grade ≥3 AE of any cause: 1 (4) n (%) | Hypophosphatemia, grade ≥3 AE of any cause: 2 (8) n (%) | Hypophosphatemia, treatment-related AE: 4 (15) n (%) | Hypophosphatemia, treatment-related grade ≥3 AE: 2 (8) n (%) | Lymphopenia, grade ≥3 AE of any cause: 1 (4) n (%) | Lymphopenia, treatment-related grade ≥3 AE: 0 (0) n (%) | Musculoskeletal chest pain, grade ≥3 AE of any cause: 1 (4) n (%) | Nausea, all-grade AE of any cause: 20 (77) n (%) | Nausea, grade ≥3 AE of any cause: 2 (8) n (%) | Nausea, treatment-related AE: 20 (77) n (%) | Nausea, treatment-related grade ≥3 AE: 2 (8) n (%) | Oedema peripheral, all-grade AE of any cause: 5 (19) n (%) | On-study deaths: 1 (4) n (%) | Oropharyngeal pain, all-grade AE of any cause: 9 (35) n (%) | Pain in extremity, grade ≥3 AE of any cause: 1 (4) n (%) | Pneumonia, grade ≥3 AE of any cause: 0 (0) n (%) | Pruritus generalised, all-grade AE of any cause: 3 (12) n (%) | Pruritus generalised, treatment-related AE: 2 (8) n (%) | Pruritus generalised, treatment-related grade ≥3 AE: 0 (0) n (%) | Pruritus, all-grade AE of any cause: 4 (15) n (%) | Pruritus, treatment-related AE: 3 (12) n (%) | Pyrexia, all-grade AE of any cause: 5 (19) n (%) | Rash maculo-papular, all-grade AE of any cause: 4 (15) n (%) | Rash maculo-papular, grade ≥3 AE of any cause: 1 (4) n (%) | Rash maculo-papular, treatment-related AE: 1 (4) n (%) | Rash maculo-papular, treatment-related grade ≥3 AE: 0 (0) n (%) | Rash, treatment-related AE: 1 (4) n (%) | Rash, treatment-related grade ≥3 AE: 0 (0) n (%) | Sepsis, grade ≥3 AE of any cause: 0 (0) n (%) | Stomatitis (includes oropharyngeal pain and mucosal inflammation), treatment-related AE: 10 (38) n (%) | Stomatitis, all-grade AE of any cause: 12 (46) n (%) | Stomatitis, grade ≥3 AE of any cause: 1 (4) n (%) | Stomatitis, treatment-related grade ≥3 AE: 1 (4) n (%) | Thrombocytopenia, grade ≥3 AE of any cause: 1 (4) n (%) | Thrombocytopenia, treatment-related grade ≥3 AE: 1 (4) n (%) | Transitional cell carcinoma, grade ≥3 AE of any cause: 1 (4) n (%) | Urinary tract infection, all-grade AE of any cause: 8 (31) n (%) | Vomiting, all-grade AE of any cause: 20 (77) n (%) | Vomiting, grade ≥3 AE of any cause: 1 (4) n (%) | Vomiting, treatment-related AE: 19 (73) n (%) | Weight decreased, all-grade AE of any cause: 7 (27) n (%) | Weight decreased, treatment-related AE: 4 (15) n (%)
